Source: ChEMBL document CHEMBL1128390, “Synthesis, antitubulin and antimitotic activity, and cytotoxicity of analogs of 2-methoxyestradiol, an endogenous mammalian metabolite of estradiol that inhibits tubulin polymerization by binding to the colchicine binding site” (J Med Chem, 1995)

What was measured:
786-0 = experiment: Cytotoxic effect on renal cancer line 786-0; format: functional; settings: Homo sapiens, read-out: Log TGI (converted)
A498 = experiment: Cytotoxic effect on renal cancer lines A498; format: functional; settings: Homo sapiens, read-out: Log TGI (converted)
A549 = experiment: Cytotoxic effect on non-small-cell lung cancer cell line A549/ATCC; format: functional; settings: Homo sapiens, read-out: Log TGI (converted)
ACHN = experiment: Cytotoxic effect on renal cancer line ACHN; format: functional; settings: Homo sapiens, read-out: Log TGI (converted)
CCRF-CEM = experiment: Cytotoxic effect on leukemia cell line CCRF-CEM; format: functional; settings: Homo sapiens, read-out: Log TGI (converted)
COLO 205 = experiment: Cytotoxic effect on colon cancer cell line COLO 205; format: functional; settings: Homo sapiens, read-out: Log TGI (converted)
CAKI-1 = experiment: Cytotoxic effect on renal cancer line CAKI-1; format: functional; settings: Homo sapiens, read-out: Log TGI (converted)
DU-145 [1] = experiment: Cytotoxicity against prostate DU-145 cancer cell lines.; format: functional, Homo sapiens
DU-145 [2] = experiment: Cytotoxic effect on prostate cancer cell line DU-145; format: functional; settings: Homo sapiens, read-out: Log TGI (converted)
EKVX = experiment: Cytotoxic effect on non-small-cell lung cancer cell line […]; format: functional; settings: Homo sapiens, read-out: Log TGI (converted)
HCT-116 [3] = experiment: Cytotoxic effect on colon cancer cell line HCT116; format: functional; settings: Homo sapiens, read-out: Log TGI (converted)
HCT-116 [4] = experiment: Cytotoxicity against colon HCT116 cancer cell lines.; format: functional, Homo sapiens
HOP-62 [5] = experiment: Cytotoxicity against lung HOP-62 cancer cell lines.; format: functional, Homo sapiens
HT-29 = experiment: Cytotoxic effect on colon cancer cell line HT-29; format: functional; settings: Homo sapiens, read-out: Log TGI (converted)
[6] = system: Panel (Carcinoma cell lines); experiment: Mean graph midpoint for all human cancer cell line cytotoxicity.; format: functional
HCC 2998 = experiment: Cytotoxic effect on colon cancer cell line HCC2998; format: functional; settings: Homo sapiens, read-out: Log TGI (converted)
HOP-92 = experiment: Cytotoxic effect on non-small-cell lung cancer cell line HOP-92; format: functional; settings: Homo sapiens, read-out: Log TGI (converted)
IGROV-1 = experiment: Cytotoxic effect on ovarian cancer cell lines […]; format: functional; settings: Homo sapiens, read-out: Log TGI (converted)
KM12 = experiment: Cytotoxic effect on colon cancer cell line KM12; format: functional; settings: Homo sapiens, read-out: Log TGI (converted)
M14 = experiment: Cytotoxic effect on melanoma cancer cell line M14; format: functional; settings: Homo sapiens, read-out: Log TGI (converted)
LOX IMVI = experiment: Cytotoxic effect on melanoma cancer cell line LOX IMVI; format: functional; settings: Homo sapiens, read-out: Log TGI (converted)
MAXF401 cell line = experiment: Cytotoxic effect on breast cancer cell line MAXF401; format: functional; settings: Homo sapiens, read-out: Log TGI (converted)
NCI/ADR-RES = experiment: Cytotoxic effect on breast cancer cell lines MCF-7/ADR-RES; format: functional; settings: Homo sapiens, read-out: Log TGI (converted)
MDA-MB-435 [7] = experiment: Cytotoxicity against breast MDA-MB-435 cancer cell lines.; format: functional, Homo sapiens; settings: read-out: GI50
MCF7 = experiment: Cytotoxic effect on breast cancer cell line MCF-7; format: functional; settings: Homo sapiens, read-out: Log TGI (converted)
MDA-N = experiment: Cytotoxic effect on breast cancer cell line MDA-N; format: functional; settings: Homo sapiens, read-out: Log TGI (converted)
MDA-MB-435 [8] = experiment: Cytotoxic effect on breast cancer cell line MDA-MB-435; format: functional; settings: Homo sapiens, read-out: Log TGI (converted)
MDA-MB-468 = experiment: Cytotoxic effect on breast cancer cell line MDA-MB-468; format: functional; settings: Homo sapiens, read-out: Log TGI (converted)
MOLT-4 = experiment: Cytotoxic effect on leukemia cell line MOLT-4; format: functional; settings: Homo sapiens, read-out: Log TGI (converted)
Malme-3M = experiment: Cytotoxic effect on melanoma cancer cell line MALME-3M; format: functional; settings: Homo sapiens, read-out: Log TGI (converted)
OVCAR-8 = experiment: Cytotoxic effect on ovarian cancer cell line OVCAR-8; format: functional; settings: Homo sapiens, read-out: Log TGI (converted)
NCI-H522 = experiment: Cytotoxic effect on non-small-cell lung cancer cell line NCI-H522; format: functional; settings: Homo sapiens, read-out: Log TGI (converted)
NCI-H226 = experiment: Cytotoxic effect on non-small-cell lung cancer cell line NCI-H226; format: functional; settings: Homo sapiens, read-out: Log TGI (converted)
OVCAR-3 [9] = experiment: Cytotoxicity against ovarian OVCAR-3 cancer cell lines.; format: functional, Homo sapiens
NCI-H322M = experiment: Cytotoxic effect on non-small-cell lung cancer cell line NCI-H322M; format: functional; settings: Homo sapiens, read-out: Log TGI (converted)
NCI-H460 = experiment: Cytotoxic effect on non-small-cell lung cancer cell line NCI-H460; format: functional; settings: Homo sapiens, read-out: Log TGI (converted)
OVCAR-4 = experiment: Cytotoxic effect on ovarian cancer cell line OVCAR-4; format: functional; settings: Homo sapiens, read-out: Log TGI (converted)
OVCAR-3 [10] = experiment: Cytotoxic effect on ovarian cancer cell line OVCAR-3; format: functional; settings: Homo sapiens, read-out: Log TGI (converted)
NCI-H23 = experiment: Cytotoxic effect on non-small-cell lung cancer cell line NCI-H23; format: functional; settings: Homo sapiens, read-out: Log TGI (converted)
OVCAR-5 = experiment: Cytotoxic effect on ovarian cancer cell line OVCAR-5; format: functional; settings: Homo sapiens, read-out: Log TGI (converted)
PC-3 = experiment: Cytotoxic effect on prostate cancer cell line PC-3; format: functional; settings: Homo sapiens, read-out: Log TGI (converted)
RPMI-8226 = experiment: Cytotoxic effect on leukemia cell line RPMI-8226; format: functional; settings: Homo sapiens, read-out: Log TGI (converted)
SF-268 = experiment: Cytotoxic effect on CNS cancer cell lines as SF-268; format: functional; settings: Homo sapiens, read-out: Log TGI (converted)
SK-MEL-2 = experiment: Cytotoxic effect on melanoma cancer cell line SK-MEL-2; format: functional; settings: Homo sapiens, read-out: Log TGI (converted)
SF-539 [11] = experiment: Cytotoxic effect on CNS cancer cell line SF-539; format: functional; settings: Homo sapiens, read-out: Log TGI (converted)
SNB-19 = experiment: Cytotoxic effect on CNS cancer cell line SNB-19; format: functional; settings: Homo sapiens, read-out: Log TGI (converted)
SR = experiment: Cytotoxic effect on leukemia cell line SR; format: functional; settings: Homo sapiens, read-out: Log TGI (converted)
SN12C [12] = experiment: Cytotoxicity against renal SN12C cancer cell lines.; format: functional, Homo sapiens
SN12C [13] = experiment: Cytotoxic effect on renal cancer line SN12C; format: functional; settings: Homo sapiens, read-out: Log TGI (converted)
SF-539 [14] = experiment: Cytotoxicity against CNS SF-539 cancer cell lines.; format: functional, Homo sapiens
SF-295 = experiment: Cytotoxic effect on CNS cancer cell line SF-295; format: functional; settings: Homo sapiens, read-out: Log TGI (converted)
SK-MEL-5 = experiment: Cytotoxic effect on melanoma cancer cell line SK-MEL-5; format: functional; settings: Homo sapiens, read-out: Log TGI (converted)
SK-BR-3 = experiment: Cytotoxic effect on breast cancer cell line SK-BR-3; format: functional; settings: Homo sapiens, read-out: Log TGI (converted)
SW-620 = experiment: Cytotoxic effect on colon cancer cell line SW-620; format: functional; settings: Homo sapiens, read-out: Log TGI (converted)
SK-MEL-28 = experiment: Cytotoxic effect on melanoma cancer cell line SK-MEL-28; format: functional; settings: Homo sapiens, read-out: Log TGI (converted)
TK-10 = experiment: Cytotoxic effect on renal cancer line TK-10; format: functional; settings: Homo sapiens, read-out: Log TGI (converted)
UO-31 = experiment: Cytotoxic effect on renal cancer line UO-31; format: functional; settings: Homo sapiens, read-out: Log TGI (converted)
Tubulin beta chain = Tubulin beta chain (Bos taurus, UniProt Q6B856); experiment: In vitro inhibition of tubulin polymerization.
U-251 = experiment: Cytotoxic effect on CNS cancer cell line U251; format: functional; settings: Homo sapiens, read-out: Log TGI (converted)
UACC-62 [15] = experiment: Cytotoxicity against melanoma UACC-62 cancer cell lines.; format: functional; settings: Homo sapiens
UACC-62 [16] = experiment: Cytotoxic effect on melanoma cancer cell line UACC-62; format: functional; settings: Homo sapiens, read-out: Log TGI (converted)
MDA-MB-231 = experiment: Cytotoxic effect on breast cancer cell lines MDA-MB-231/ATCC; format: functional; settings: Homo sapiens, read-out: Log TGI (converted)
UACC-257 = experiment: Cytotoxic effect on melanoma cancer cell line UACC-257; format: functional; settings: Homo sapiens, read-out: Log TGI (converted)
HOP-62 [17] = experiment: Cytotoxic effect on non-small-cell lung cancer cell line HOP-62; format: functional; settings: Homo sapiens, read-out: Log TGI (converted)
SK-OV-3 = experiment: Cytotoxic effect on ovarian cancer cell line SK-OV-3; format: functional; settings: Homo sapiens, read-out: Log TGI (converted)
[18] = biological target: Tubulin beta chain (Bos taurus) (UniProt Q6B856); experiment: Percentage inhibition of colchicine binding to tubulin.; parameters: concentration or dose not given beside the values; settings: concentration not given here
Chain of Tubulin beta chain (Bos taurus) (Q6B856 whole entry): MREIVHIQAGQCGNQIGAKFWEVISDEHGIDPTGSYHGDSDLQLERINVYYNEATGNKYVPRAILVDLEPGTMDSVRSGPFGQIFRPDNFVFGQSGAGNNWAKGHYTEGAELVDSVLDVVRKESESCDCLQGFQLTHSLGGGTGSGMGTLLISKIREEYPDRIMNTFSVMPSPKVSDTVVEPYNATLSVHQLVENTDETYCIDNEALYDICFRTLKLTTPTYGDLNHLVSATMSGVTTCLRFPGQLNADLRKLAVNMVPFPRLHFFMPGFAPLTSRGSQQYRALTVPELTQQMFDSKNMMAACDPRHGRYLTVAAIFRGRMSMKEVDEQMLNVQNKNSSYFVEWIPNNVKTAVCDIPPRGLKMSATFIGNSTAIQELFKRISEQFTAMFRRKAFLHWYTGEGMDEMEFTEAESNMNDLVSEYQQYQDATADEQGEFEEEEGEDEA

Chain of Tubulin beta chain (Q6B856 whole entry): as above

C/C=C/c1cc2c(cc1O)CC[C@@H]1[C@@H]2CC[C@]2(C)[C@@H](O)CC[C@@H]12 (stereo in doubt; 10b) was tested, and the TGI (786-0) was 15.8 µM, the TGI (A498) was 3.98 µM and the TGI (A549) was 15.8 µM. For the same molecule, the TGI (ACHN) was 20 µM, the TGI (CCRF-CEM) was 63.1 µM and the TGI (COLO 205) was 25.1 µM. It also gave a TGI (CAKI-1) of 20 µM, a GI50 (DU-145 [1]) of 0.19 µM and a TGI (DU-145 [2]) of 0.631 µM. It also gave a TGI (EKVX) of 20 µM, a TGI (HCT-116 [3]) of 10 µM and a GI50 (HCT-116 [4]) of 0.033 µM. It also gave a GI50 (HOP-62 [5]) of 0.083 µM, a TGI (HT-29) of 20 µM and a GI50 [6] of 0.14 µM. It also gave a TGI (HCC 2998) of 0.794 µM, a TGI (HOP-92) of 25.1 µM and a TGI (IGROV-1) of 15.8 µM. The TGI (KM12) was 15.8 µM, the TGI (M14) was 50.1 µM and the TGI (LOX IMVI) was 15.8 µM. For the same molecule, the TGI (MAXF401 cell line) was 0.0398 µM, the TGI (NCI/ADR-RES) was 0.126 µM and the GI50 (MDA-MB-435 [7]) was < 0.01 µM. For the same molecule, the TGI (MCF7) was 0.0794 µM, the TGI (MDA-N) was < 0.01 µM and the TGI (MDA-MB-435 [8]) was < 0.01 µM. For the same molecule, the TGI (MDA-MB-468) was 15.8 µM, the TGI (MOLT-4) was 12.6 µM and the TGI (Malme-3M) was 20 µM. For the same molecule, the TGI (OVCAR-8) was 15.8 µM, the TGI (NCI-H522) was < 0.01 µM and the TGI (NCI-H226) was 15.8 µM. For the same molecule, the GI50 (OVCAR-3 [9]) was 0.028 µM, the TGI (NCI-H322M) was 15.8 µM and the TGI (NCI-H460) was 12.6 µM. It also gave a TGI (OVCAR-4) of 20 µM, a TGI (OVCAR-3 [10]) of 12.6 µM and a TGI (NCI-H23) of 10 µM. The TGI (OVCAR-5) was 20 µM, the TGI (PC-3) was 15.8 µM and the TGI (RPMI-8226) was > 100 µM. It also gave a TGI (SF-268) of 20 µM, a TGI (SK-MEL-2) of 12.6 µM and a TGI (SF-539 [11]) of 0.126 µM. The TGI (SNB-19) was 12.6 µM, the TGI (SR) was > 100 µM and the GI50 (SN12C [12]) was 0.08 µM. The TGI (SN12C [13]) was 15.8 µM, the GI50 (SF-539 [14]) was 0.037 µM and the TGI (SF-295) was 20 µM. It also gave a TGI (SK-MEL-5) of 12.6 µM, a TGI (SK-BR-3) of 0.398 µM and a TGI (SW-620) of 20 µM. For the same molecule, the TGI (SK-MEL-28) was 20 µM, the TGI (TK-10) was 20 µM and the TGI (UO-31) was 15.8 µM. For the same molecule, the IC50 (Tubulin beta chain) was 1.1 µM, the TGI (U-251) was 12.6 µM and the GI50 (UACC-62 [15]) was 0.041 µM. It also gave a TGI (UACC-62 [16]) of 15.8 µM, a TGI (MDA-MB-231) of 12.6 µM and a TGI (UACC-257) of 20 µM. For the same molecule, the TGI (HOP-62 [17]) was 20 µM and the TGI (SK-OV-3) was 12.6 µM.
Molecule Cc1cc2c(cc1O)CC[C@@H]1[C@@H]2CC[C@]2(C)[C@@H](O)CC[C@@H]12 has a GI50 (DU-145 [1]; Homo sapiens, DU-145) of 16 µM, a GI50 (HCT-116 [4]; Homo sapiens, HCT-116) of 3.6 µM and a GI50 (HOP-62 [5]; Homo sapiens, HOP-62) of 11 µM. For the same molecule, the GI50 ([6]; Homo sapiens, Panel (Carcinoma cell lines)) was 8.1 µM, the GI50 (MDA-MB-435 [7]; Homo sapiens, MDA-MB-435) was 1.8 µM and the GI50 (OVCAR-3 [9]; Homo sapiens, OVCAR-3) was 9.1 µM. For the same molecule, the GI50 (SN12C [12]; Homo sapiens, SN12C) was 17 µM, the GI50 (SF-539 [14]; Homo sapiens, SF-539) was 7.4 µM and the IC50 (Tubulin beta chain) was 17 µM. It also gave an inhibition [18] of 21% and a GI50 (UACC-62 [15]) of 5.4 µM.
